The text below walks through data of US20150290354A1, “NONWOVEN FIBER MATERIALS” (NORTH CAROLINA STATE UNIVERSITY, priority 2012, published 2015).

Assay in all cases: Minimum inhibitory / bactericidal concentration (MIC/MBC) test, 96-well serial dilution
Test [1] deals with E. Coli J53pMG101 (silver resistant). Type of test: cell-based, Escherichia coli. To be noted: up to 1000 μg/ml. The procedure: (§1) A minimum inhibitory concentration (MIC) test was conducted to measure the efficiency of certain silver-based antimicrobials against each bacterial isolate. A sterile round-bottom plastic 96-well plate containing […] of serially 1:2 diluted concentrations of antimicrobial solutions was inoculated with […] of 5-8×10^5 CFU/ml of each bacterial isolate. Each antimicrobial sample was tested at 15 serially diluted concentrations starting at their original highest concentration (0.015-1000 μg/ml).
(§2) After 24 h of incubation, 10 μl of the suspension from all of the clear wells (showing no bacterial growth) was dropped onto a MH agar plate and incubated for 24 h.
The mass concentration of these nanoparticles dispersed in water was 1.0 mg/mL The Silvadur ET solution containing 2.6-3.1 wt % silver ions was used at its original concentration (1.0 mg/mL). Silver nitrate was also dissolved in distilled water to create a 1 mg/mL solution. A gram negative (Escherichia coli J53) and gram positive (staphylococcus aureus—a common bacteria to cause skin infections) bacteria were employed for the experiment. Cation-adjusted Mueller-Hinton (MH) broth and agar (Difco Laboratories, Detroit, Mich., USA) were utilized to prepare bacterial cultivating medium. Isolated bacterial colonies were grown overnight in an incubator (37° C., 5% CO2) from frozen samples on an agar plate. […]

A further test deals with Staphylococcus aureus. Type of test: cell-based. Particulars: n=6. The procedure:
as §1, §2
(§3) The mass concentration of these nanoparticles dispersed in water was 1.0 mg/mL The Silvadur ET solution containing 2.6-3.1 wt % silver ions was used at its original concentration (1.0 mg/mL). Silver nitrate was also dissolved in distilled water to create a 1 mg/mL solution. A gram negative (Escherichia coli J53) and gram positive (staphylococcus aureus—a common bacteria to cause skin infections) bacteria were employed for the experiment. Cation-adjusted Mueller-Hinton (MH) broth and agar (Difco Laboratories, Detroit, Mich., USA) were utilized to prepare bacterial cultivating medium. Isolated bacterial colonies were grown overnight in an incubator (37° C., 5% CO2) from frozen samples on an agar plate. For Agresistant bacteria (E. coli J53 [pMG101]), […] ampicillin sodium salt (Fisher Scientific, USA) was also added to the agar plates. The bacterial colony was suspended in phosphate buffered saline (PBS) to obtain 0.5 McFarland (10^5 CFU/ml). Microplates were incubated at 37° C. and shaken at 200 rpm for 24 hours. To control the accuracy of bacterial seeding density, bacteria were diluted in PBS at 103, 104, 105, and 106 and cultured overnight.
(§4) A gram negative (Escherichia coli J53) and gram positive (staphylococcusaureus, a common bacteria that causes skin infections) bacteria were employed for the experiment. Cation-adjusted Mueller-Hinton (MH) broth and agar (Difco Laboratories, Detroit, Mich., USA) were used to prepare bacterial cultivating medium. Isolated bacterial colonies were grown overnight in an incubator (37° C., 5% CO2) from frozen samples on an agar plate. For Ag-resistant bacteria (E. coli J53 [pMG101]) […] ampicillin sodium salt (Fisher Scientific, USA) was also added to the agar plates. The bacterial colony was suspended in phosphate buffered saline (PBS) to get 0.5 McFarland (10^5 CFU/ml). Microplates were incubated at 37° C. and shaken at 200 rpm for 24 h. To control the accuracy of bacterial seeding density, bacteria were diluted in PBS at 10^3, 10^4, 10^5, and 10^6 and plated overnight.
as §1, with “The minimum” for “A minimum”, “of silver based” for “of certain silver-based”, “μg/ml). […] After 24 h of incubation, 10 μl of the suspension from all of the clear wells (showing no bacterial growth) was dropped onto a MH agar plate and incubated for 24 h.” for “μg/ml).”

The next test concerns Escherichia coli J53. Type of test: cell-based. Particulars: n=6. As to the method: as §1, §2, §3, §4
as §1, with “The minimum” for “A minimum”, “of silver based” for “of certain silver-based”, “μg/ml). […] After 24 h of incubation, 10 μl of the suspension from all of the clear wells (showing no bacterial growth) was dropped onto a MH agar plate and incubated for 24 h.” for “μg/ml).”

[2] abbreviates: Table 1, Example 1, 24 h incubation.

Structures are written as SMILES. “Also recorded” adds a separate entry of the source.

With `O=[N+]([O-])[O-].[Ag+]` [Silver nitrate], in test [1], the “Observation of silver resistant E. coli J53 (pMG101) in the presence of the antimicrobial” value is recorded as “confirmed the resistance of E. coli J53 to silver; also recorded: confirmed its resistance to silver”. The “Minimum Inhibitory Concentrations (MIC) Staphylococcus aureus” value in the test on Staphylococcus aureus (setting [2]) came to 15.62 µg/mL; in the test with Staphylococcus aureus (Table 9, Example 4), 15.62 µg/mL. The “Minimum Bacterial Concentrations (MBC) Staphylococcus aureus” value in the test with Staphylococcus aureus (Table 2, Example 1) was 31.25 µg/mL; in the test on Staphylococcus aureus (Table 10, Example 4), 31.25 µg/mL. In addition, the “Minimum Inhibitory Concentrations (MIC) Escherichia coli J53” value in the test on Escherichia coli J53 (setting [2]) turned out to be 7.81 µg/mL; in the test on Escherichia coli J53 (Table 9, Example 4), 7.81 µg/mL. Besides, the “Minimum Bacterial Concentrations (MBC) Escherichia coli J53” value turned out to be 15.62 µg/mL in the test on Escherichia coli J53 (Table 2, Example 1) and 15.62 µg/mL in the test on Escherichia coli J53 (Table 10, Example 4).
